Data on 2 molecules can be found in patent US10779550B2, “Human milk oligosaccharides to ameliorate symptoms of stress” (ABBOTT LABORATORIES, priority 2012, dated 2020).

The subject of assay [1] is fecal samples taken from formula-fed infants (FF) (intestinal flora). In words: Anaerobic fermentation of HMOs with fecal inocula from formula-fed infants; GABA and agmatine in supernatant by GC/MS and LC/MS/MS. The class given is cell-based, human. Particulars: for GABA, ratio HMO/blank / agmatine, ratio HMO/blank: formula fed infants, fermentation 37° C.; for GABA and agmatine relative to a blank (in words): formula-fed infants (FF) fecal fermentation cultures. The procedure:
(§1) Fecal samples from eight human babies, one group of four breast-fed and the other group of four formula-fed, were used as inocula for anaerobic fermentation (37° C.) of lacto-N-neotetraose (LNnT) and 6′-sialyllactose. Supernatants from the fermentation cultures were sampled at 0 hr, 3 hr, and 6 hr. A culture without addition of HMOs served as a control. A sample of the fermentation medium (blank), which constituted approximately 90% of the starting culture volume, was also analyzed.
(§2) Samples were extracted and split into equal parts for analysis on GC/MS and LC/MS/MS platforms. GABA and agmatine ions were identified in chromatograms, and peak area was integrated for quantitative analysis.

Assay [2] relates to fecal samples taken from breast-fed infants (BF) (intestinal flora). In words: Anaerobic fermentation of HMOs with fecal inocula from breast-fed infants; GABA and agmatine in supernatant by GC/MS and LC/MS/MS. The assay is classed as cell-based, human. The following applies: for GABA, ratio HMO/blank / agmatine, ratio HMO/blank: breast fed infants, fermentation 37° C.; for GABA and agmatine relative to a blank (in words): breast-fed infants (BF) fecal fermentation cultures. On the procedure:
as §1, §2

Marks after values point to notes of the source that are not given here.

As to `CC(=O)N[C@H]1[C@H](O[C@H]2[C@@H](O)[C@@H](CO)O[C@@H](O[C@H]3[C@H](O)[C@@H](O)C(O)O[C@@H]3CO)[C@@H]2O)O[C@H](CO)[C@@H](O[C@@H]2O[C@H](CO)[C@H](O)[C@H](O)[C@H]2O)[C@@H]1O` (mixture of isomers) [LNnT, lacto-N-neotetraose], the “GABA, ratio HMO/blank” value is 3.25 in assay [1] (0 h); 27.83^a in assay [1] (3 h); 33.42^a in assay [1] (6 h); 3.66 in assay [2] (0 h); 14.78 in assay [2] (3 h); 17.46^a in assay [2] (6 h). Also, the “agmatine, ratio HMO/blank” value is given as 2.12 in assay [1] (0 h); 61.77^a in assay [1] (3 h); 75.02^a in assay [1] (6 h); 9.52^a in assay [2] (0 h); 34.4 in assay [2] (3 h); 1.59 in assay [2] (6 h). The “GABA and agmatine relative to a blank (in words)” value in assay [1] and in assay [2] was “dramatic increases” throughout.
Take `CC(=O)N[C@H]1[C@H]([C@H](O)[C@H](O)CO)O[C@@](OC[C@H]2O[C@@H](O[C@H]3[C@H](O)[C@@H](O)[C@H](O)O[C@@H]3CO)[C@H](O)[C@@H](O)[C@H]2O)(C(=O)O)C[C@@H]1O` [6′SL, 6′-sialyllactose]: the “GABA, ratio HMO/blank” value in assay [1] (0 h) is given as 0.6; in assay [1] (3 h), 4.31; in assay [1] (6 h), 16.99^a; in assay [2] (0 h), 1.22; in assay [2] (3 h), 3.53; in assay [2] (6 h), 5.32. Moreover, the “agmatine, ratio HMO/blank” value is on record as 1.4 in assay [1] (0 h); 11.99 in assay [1] (3 h); 3.76 in assay [1] (6 h); 8.23^a in assay [2] (0 h); 10.51 in assay [2] (3 h); 3.43 in assay [2] (6 h). For the same molecule, the “GABA and agmatine relative to a blank (in words)” value in assay [1] and in assay [2] was “dramatic increases” throughout.
